Patent US20090280068A1, “POLYMORPH OF 8-HYDROXY-5-[(1R)-1-HYDROXY-2-[[(1R)-2-(4-METHOXYPHENYL)-1-METHYLETHYL]AMINO]ETHYL]-2(1H)-QUINOLINONE MONOHYDROCHLORIDE” (Chiesi Farmaceutici S.p.A., priority 2008, published 2009)

Assay: Stability studies: storage under different relative humidity conditions, checked by XRPD pattern
Assay type: physicochemical
Conditions: solid stored at 25° C., 1 week each at 40%, 60%, 80%, 30%, 0% and 40% RH
Protocol: The XRPD analyses were carried out on a PANanalytical X'pert Pro X-ray powder diffractometer using Cu Kα radiation. The instrument was equipped with a X'Celerator detector. A theta-two theta continuous scan from 2.5 degrees 2 theta to 40 degrees 2 theta was used. Each sample was prepared for analysis by placing it in a quartz sample holder. The XPRD patterns are reported in terms of degrees 2 theta (°2θ, accuracy ±0.1°), diffraction peak intensity (height, [cts]), full width at half maximum (FWHM, [°2θ]), interatomic spacing in angstroms (d-spacing, [Å]), and relative intensities (%). The relative intensity is recorded as the ratio of the peak intensity to that of the most intense peak.
In order to check its thermodynamic stability, CHF 4226 crystal form D was stored at room temperature under different relative humidity (RH) conditions: • 40% RH. and 25° C. for 1 week • 60% RH. and 25° C. for 1 week • 80% RH and 25° C. for 1 week • 60% RH and 25° C. for 1 week • 40% RH and 25° C. for 1 week • 30% RH and 25° C. for 1 week • 0% RH. and 25° C. for 1 week • 40% RH and 25° C. for 1 week The thermodynamic stability of all the samples was checked by recording their XPRD pattern.

SMILES: COc1ccc(C[C@@H](C)NC[C@H](O)c2ccc(O)c3[nH]c(=O)ccc23)cc1.Cl [CHF 4226 crystal form D, 8-hydroxy-5-[(1R)-1-hydroxy-2-[[(1R)-2-(4-methoxyphenyl)-1-methylethyl]amino]ethyl]-2(1H)-quinolinone monohydrochloride]
- thermodynamic stability (XPRD pattern after storage): stable features under all stability screening conditions
